# Reference: patent publication US20140088027A1, “PHARMACEUTICAL COMPOSITION COMPRISING AN SGLT2 INHIBITOR AND A PPAR- GAMMA AGONIST AND USES THEREOF” (BOEHRINGER INGELHEIM INTERNATIONAL GMBH, priority 2010, published 2014)
# Experiments:
# [1] = Plasma insulin in cafeteria-diet obese female Wistar rats; format: in vivo, rat; conditions: fed, 10 mg/kg po once daily each, after 28/29 days
# Procedure: (§1) An animal model of obesity was used to study the effect of Cpd. A, Pioglitazone or the combination of Cpd. A with Pioglitazone on body weight and total body fat content. For this, female Wistar rats were made obese by exposure to a simplified cafeteria diet containing high fat chow, chocolate and ground peanuts for approximately 19 weeks. Following the induction of obesity, rats were given vehicle (0.5% aqueous hydroxyethylcellulose) for 7 days and were then dosed orally once-daily with either vehicle, 10 mg/kg Cpd. A, 10 mg/kg Pioglitazone, or the combination of Cpd. A and Pioglitazone for 29 days. For the duration of the study rats were maintained on cafeteria diet.
# After 28 days of treatment, blood samples were collected from the tail vein (from fed animals) for analysis of insulin. Plasma insulin values were determined by using a Millipore Luminex RENDO 85K kit.
# In FIG. 2, results are mean plasma insulin levels±SEM after 29 days of once-daily oral treatment with the glucopyranosyl-substituted benzene derivative (Cpd. A), Pioglitazone or the combination of both Cpd. A and Pioglitazone at the indicated doses. Plasma insulin values were analyzed by unpaired t-test. P values versus vehicle control are indicated by symbols above the bars (*, p<0.05; **, p<0.01; ***, p<0.001). […] Combination of Cpd.
# [2] = Body composition (FoodScan NIR) in cafeteria-diet obese female Wistar rats; format: in vivo, rat; conditions: 10 mg/kg po once daily, carcass analysis at Day 31
# Procedure: as §1
# At the end of the study on Day 31 (24 hours after the last treatment on Day 30) all rats were terminated, the body exsanguinated and the following tissues removed: the caudate liver lobe, the pancreas, the kidneys. Body composition (body fat, protein and water) was determined using the FoodScan NIR (near infra-red) meat analyser (Foss UK). This machine has AOAC (Association of Official Analytical Chemists) approval as reference method for the analysis of moisture, fat and protein in meat. The carcasses were milled under liquid nitrogen and a portion of the milled carcass was analysed in the FoodScan Analyser.
# Results are the percentage reduction in each parameter when compared to control and presented along with the corresponding percentage reduction in carcass weight compared to the vehicle-treated control group. Body composition (body fat, protein and water) was determined using the FoodScan NIR (near infra-red) meat analyser (Foss UK).
# [3] = system: Zucker diabetic fatty rats (ZDF/Crl-Lepr^fa); assay: Blood glucose time course in male Zucker diabetic fatty rats; format: in vivo, rat; conditions: freely fed, 2 h after dosing, two weeks once daily po, Cpd. A 1 mg/kg, pioglitazone 10 mg/kg
# Description: The SGLT2 inhibitor is the glucopyranosyl-substituted benzene derivative described as compound (I.9) hereinabove and referred to as “Cpd. A” in the following. The PPARγ agonist is pioglitazone. All experimental protocols concerning the use of laboratory animals were reviewed by a federal Ethics Committee and approved by governmental authorities. The time course of blood glucose was followed over a treatment period of 2 weeks in male Zucker diabetic fatty rats (ZDF/Crl-Lepr^fa) with an age of 10 weeks at the start of the study. A pre-dose blood sample was obtained by tail bleed (day 0) and blood glucose was measured with a glucometer. From day 1 to day 15, the animals (n=5/group) received once daily oral administrations of either vehicle alone (0.5% aqueous hydroxyethylcellulose) or this vehicle containing either Cpd. A or pioglitazone or the combination of the Cpd. A with pioglitazone. Blood glucose was measured in tail blood 2 h after dosing in freely fed animals. The data are presented as mean±S.E.M. Statistical comparison was conducted by repeated measures two-way ANOVA followed by Bonferroni post tests for group-wise comparisons. A p value <0.05 was considered to show a statistically significant difference.
# Cpd. A is Cpd. A described as compound (I.9) hereinabove at a dose of 1 mg/kg. Pioglitazone was dosed at 10 mg/kg. Combination Cpd. […]
# [4] = Body weight in cafeteria-diet obese female Wistar rats; format: in vivo, rat; conditions: obese female Wistar rats on cafeteria diet, 28 day treatment
# Procedure: as §1
# In FIG. 1, results are mean body weights (adjusted for differences between the body weights of the different treatment groups at baseline (Day 1))±SEM (calculated from the residuals of the statistical model), n=10) after 28 day once-daily oral treatment with the glucopyranosyl-substituted benzene derivative (Cpd. A), Pioglitazone or the combination of both Cpd. A and Pioglitazone at the indicated doses.
# Body weight data were analyzed by unpaired t-test. […] Combination of Cpd.
# [5] = metformin on its own, in the diabetic; cited from earlier work
Structure (SMILES),plasma insulin levels versus vehicle control [1],"Carcass weight (%), percentage reduction compared to vehicle-treated control [2] [%]","Fat (%), percentage reduction compared to control [2] [%]","Protein (%), percentage reduction compared to control [2] [%]","Water (%), percentage reduction compared to control [2] [%]",reduction of blood glucose [3] [%],reduction of body weight compared to vehicle-treated control ([4]; 10 mg/kg po once daily) [%],increase of body weight compared to vehicle-treated control animals ([4]; 10 mg/kg po once daily each) [%],average improvement in the HbA1c value [5]
OC[C@H]1O[C@@H](c2ccc(Cl)c(Cc3ccc(O[C@H]4CCOC4)cc3)c2)[C@H](O)[C@@H](O)[C@@H]1O [Cpd. A],reduced the plasma insulin levels significantly,−3.5,−4.5,−1.5,−0.3,37,3.1,,
"CCc1ccc(CCOc2ccc(CC3SC(=O)NC3=O)cc2)nc1 (centres unmarked) [Pioglitazone, pioglitazone]",,6.2,15.4,1.1,3.6,48,,6.8,
CN(C)C(=N)N=C(N)N [metformin],,,,,,,,,1.0-1.5%
